# Target: WIL-FL (Homo sapiens, UniProt P01721)
# Assay: Unlabeled LC Protease Sensitivity Assay (proteinase K)
# Type: biochemical
# Details: small molecule 10 μM, WIL-FL 5 μM, proteinase K 50 nM, 2 hours at 37° C.
# How it was run: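 Compound at 10 μM (1% DMSO) is mixed with 5 μM WIL-FL and 50 nM proteinase K in PBS pH 7.4/0.02% Pluronic F-127, 37 °C, 2 h, then quenched with PMSF. Remaining protein measured by SEC-UPLC peak area at 280 nm and expressed as fold protection relative to vehicle and no-protease controls.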
row,Compound,Protection (fold protection of LC from protease)
1,"C#CCN(CC(=C)C)c1ccc2c(C)cc(=O)oc2c1 [Compound 261, 4-methyl-7-((2-methylallyl)(prop-2-yn-1-yl)amino)-2H-chromen-2-one]",A (A < 0.3))
2,"C#CCN(CC1CC1)c1ccc2c(C)cc(=O)oc2c1 [Compound 262, 7-((cyclopropylmethyl)(prop-2-yn-1-yl)amino)-4-methyl-2H-chromen-2-one]",A (A < 0.3))
3,"C#CCN(CCC=C)c1ccc2c(C)cc(=O)oc2c1 [Compound 263, 7-(but-3-en-1-yl(prop-2-yn-1-yl)amino)-4-methyl-2H-chromen-2-one]",A (A < 0.3))
4,"C#CCN(CCCF)c1ccc2c(C)cc(=O)oc2c1 [Compound 264, 7-((3-fluoropropyl)(prop-2-yn-1-yl)amino)-4-methyl-2H-chromen-2-one]",A (A < 0.3))
5,"Cc1cc(=O)oc2cc(NCCC(F)(F)F)ccc12 [Compound 265, 4-methyl-7-((3,3,3-trifluoropropyl)amino)-2H-chromen-2-one]",A (A < 0.3))
6,"Cc1cc(=O)oc2cc(N(C)C)ccc12 [Compound 266, 7-(dimethylamino)-4-methyl-2H-chromen-2-one]",A (A < 0.3))
7,"C#CCNC(=O)c1ccc2c(C)cc(=O)oc2c1 [Compound 267, 4-methyl-2-oxo-N-(prop-2-yn-1-yl)-2H-chromene-7-carboxamide]",A (A < 0.3))
8,"CCN(C)c1ccc2c(C)cc(=O)oc2c1 [Compound 268, 7-(ethyl(methyl)amino)-4-methyl-2H-chromen-2-one]",A (A < 0.3))
9,"Cc1cc(=O)oc2cc(NCC#N)ccc12 [Compound 269, 2-((4-methyl-2-oxo-2H-chromen-7-yl)amino)acetonitrile]",A (A < 0.3))
10,"CCNc1ccc2c(C)cc(=O)oc2c1 [Compound 270, 7-(ethylamino)-4-methyl-2H-chromen-2-one]",A (A < 0.3))
11,"C#CCN(CC)c1ccc2c(C)cc(=O)oc2c1 [Compound 271, 7-(ethyl(prop-2-yn-1-yl)amino)-4-methyl-2H-chromen-2-one]",A (A < 0.3))
12,"CCN(CC#N)c1ccc2c(C)cc(=O)oc2c1 [Compound 272, 2-(ethyl(4-methyl-2-oxo-2H-chromen-7-yl)amino)acetonitrile]",A (A < 0.3))
13,"CCN(CCF)c1ccc2c(C)cc(=O)oc2c1 [Compound 273, 7-(ethyl(2-fluoroethyl)amino)-4-methyl-2H-chromen-2-one]",A (A < 0.3))
14,"CCN(c1ccc2c(C)cc(=O)oc2c1)C(C)C [Compound 274, 7-(ethyl(isopropyl)amino)-4-methyl-2H-chromen-2-one]",A (A < 0.3))
15,"CCCN(CC)c1ccc2c(C)cc(=O)oc2c1 [Compound 275, 7-(ethyl(propyl)amino)-4-methyl-2H-chromen-2-one]",A (A < 0.3))
16,"CCN(CC)c1ccc2c(C)c(CCNC(=O)NCc3ccccn3)c(=O)oc2c1 [Compound 276, 1-(2-(7-(diethylamino)-4-methyl-2-oxo-2H-chromen-3-yl)ethyl)-3-(pyridin-2-ylmethyl)urea]",A (A < 0.3))
17,"CCN(CC)c1ccc2c(C)c(CCNC(=O)NCc3ccncc3)c(=O)oc2c1 [Compound 277, 1-(2-(7-(diethylamino)-4-methyl-2-oxo-2H-chromen-3-yl)ethyl)-3-(pyridin-4-ylmethyl)urea]",B (3 ≤ B < 0.6)
18,"CCN(CC)c1ccc2c(C)c(CCNC(=O)NCc3ccccc3)c(=O)oc2c1 [Compound 278, 1-benzyl-3-(2-(7-(diethylamino)-4-methyl-2-oxo-2H-chromen-3-yl)ethyl)urea]",C (C ≥ 0.6)
19,"CCN(CC)c1ccc2c(C)c(CCNC(=O)NCc3ccc4[nH]ccc4c3)c(=O)oc2c1 [Compound 279, 1-((1H-indol-5-yl)methyl)-3-(2-(7-(diethylamino)-4-methyl-2-oxo-2H-chromen-3-yl)ethyl)urea]",A (A < 0.3))

row,Compound,Protection (fold protection of LC from protease)
1,"CCN(CC)c1ccc2c(C)c(CCNC(=O)NCCc3ccc(O)cc3)c(=O)oc2c1 [Compound 280, 1-(2-(7-(diethylamino)-4-methyl-2-oxo-2H-chromen-3-yl)ethyl)-3-(4-hydroxyphenethyl)urea]",B (3 ≤ B < 0.6)
2,"CCN(CC)c1ccc2c(C)c(CCNC(=O)NCCc3cnc[nH]3)c(=O)oc2c1 [Compound 281, 1-(2-(1H-imidazol-5-yl)ethyl)-3-(2-(7-(diethylamino)-4-methyl-2-oxo-2H-chromen-3-yl)ethyl)urea]",B (3 ≤ B < 0.6)
3,"CCN(CC)c1ccc2c(C)c(CCNC(=O)NCc3cccc(Cl)n3)c(=O)oc2c1 [Compound 282, 1-((6-chloropyridin-2-yl)methyl)-3-(2-(7-(diethylamino)-4-methyl-2-oxo-2H-chromen-3-yl)ethyl)urea]",B (3 ≤ B < 0.6)
4,"CCN(CC)c1ccc2c(C)c(CCNC(=O)NCc3ccc(-c4ccccc4)cc3)c(=O)oc2c1 [Compound 283, 1-([1,1′-biphenyl]-4-ylmethyl)-3-(2-(7-(diethylamino)-4-methyl-2-oxo-2H-chromen-3-yl)ethyl)urea]",A (A < 0.3))
5,"CCN(CC)c1ccc2c(C)c(CCNC(=O)NCc3cccc(-c4ccccc4)c3)c(=O)oc2c1 [Compound 284, 1-([1,1′-biphenyl]-3-ylmethyl)-3-(2-(7-(diethylamino)-4-methyl-2-oxo-2H-chromen-3-yl)ethyl)urea]",B (3 ≤ B < 0.6)
6,"CCN(CC)c1ccc2c(C)c(CCNC(=O)NCc3cccc4ccccc34)c(=O)oc2c1 [Compound 285, 1-(2-(7-(diethylamino)-4-methyl-2-oxo-2H-chromen-3-yl)ethyl)-3-(naphthalen-1-ylmethyl)urea]",A (A < 0.3))
7,"CCN(CC)c1ccc2c(C)c(CCNC(=O)NCc3ccc(=O)[nH]c3)c(=O)oc2c1 [Compound 286, 1-(2-(7-(diethylamino)-4-methyl-2-oxo-2H-chromen-3-yl)ethyl)-3-((6-oxo-1,6-dihydropyridin-3-yl)methyl)urea]",A (A < 0.3))
8,"CCN(CC)c1ccc2c(C)c(CCNC(=O)NCc3ccnc4ccccc34)c(=O)oc2c1 [Compound 287, 1-(2-(7-(diethylamino)-4-methyl-2-oxo-2H-chromen-3-yl)ethyl)-3-(quinolin-4-ylmethyl)urea]",A (A < 0.3))
9,"CCN(CC)c1ccc2c(C)c(CCNC(=O)NCc3cnc4ccccc4c3)c(=O)oc2c1 [Compound 288, 1-(2-(7-(diethylamino)-4-methyl-2-oxo-2H-chromen-3-yl)ethyl)-3-(quinolin-3-ylmethyl)urea]",B (3 ≤ B < 0.6)
10,"CCN(CC)c1ccc2c(C)c(CCNC(=O)NCc3cncc4ccccc34)c(=O)oc2c1 [Compound 289, 1-(2-(7-(diethylamino)-4-methyl-2-oxo-2H-chromen-3-yl)ethyl)-3-(isoquinolin-4-ylmethyl)urea]",C (C ≥ 0.6)
11,"CCN(CC)c1ccc2c(C)c(CCNC(=O)NCc3nccc4ccccc34)c(=O)oc2c1 [Compound 290, 1-(2-(7-(diethylamino)-4-methyl-2-oxo-2H-chromen-3-yl)ethyl)-3-(isoquinolin-1-ylmethyl)urea]",C (C ≥ 0.6)
12,"CCN(CC)c1ccc2c(C)c(CCNC(=O)NCc3cccc(-c4c[nH]cn4)c3)c(=O)oc2c1 [Compound 291, 1-(3-(1H-imidazol-4-yl)benzyl)-3-(2-(7-(diethylamino)-4-methyl-2-oxo-2H-chromen-3-yl)ethyl)urea]",C (C ≥ 0.6)
13,"CCN(CC)c1ccc2c(C)c(CCNC(=O)NCc3ccc4ccccc4c3)c(=O)oc2c1 [Compound 292, 1-(2-(7-(diethylamino)-4-methyl-2-oxo-2H-chromen-3-yl)ethyl)-3-(naphthalen-2-ylmethyl)urea]",C (C ≥ 0.6)
14,"CCN(CC)c1ccc2c(C)c(CCNC(=O)NCc3ccc4ccccc4n3)c(=O)oc2c1 [Compound 293, 1-(2-(7-(diethylamino)-4-methyl-2-oxo-2H-chromen-3-yl)ethyl)-3-(quinolin-2-ylmethyl)urea]",B (3 ≤ B < 0.6)
15,"CCN(CC)c1ccc2c(C)c(CCNC(=O)NCc3ccncn3)c(=O)oc2c1 [Compound 294, 1-(2-(7-(diethylamino)-4-methyl-2-oxo-2H-chromen-3-yl)ethyl)-3-(pyrimidin-4-ylmethyl)urea]",A (A < 0.3))
16,"CCN(CC)c1ccc2c(C)c(CCNC(=O)NCc3cc4ccccc4cn3)c(=O)oc2c1 [Compound 295, 1-(2-(7-(diethylamino)-4-methyl-2-oxo-2H-chromen-3-yl)ethyl)-3-(isoquinolin-3-ylmethyl)urea]",B (3 ≤ B < 0.6)
17,"CCN(CC)c1ccc2c(C)c(CCNC(=O)NCc3ccc4c(=O)[nH]ccc4c3)c(=O)oc2c1 [Compound 296, 1-(2-(7-(diethylamino)-4-methyl-2-oxo-2H-chromen-3-yl)ethyl)-3-((1-oxo-1,2-dihydroisoquinolin-6-yl)methyl)urea]",B (3 ≤ B < 0.6)
18,"CCN(CC)c1ccc2c(C)c(CCNC(=O)NCc3cc(F)cc(C(=O)O)c3)c(=O)oc2c1 [Compound 297, 3-((3-(2-(7-(diethylamino)-4-methyl-2-oxo-2H-chromen-3-yl)ethyl)ureido)methyl)-5-fluorobenzoic acid]",A (A < 0.3))
19,"CCN(CC)c1ccc2c(C)c(CCNC(=O)NCc3cccc(C(N)=O)c3)c(=O)oc2c1 [Compound 298, 3-((3-(2-(7-(diethylamino)-4-methyl-2-oxo-2H-chromen-3-yl)ethyl)ureido)methyl)benzamide]",B (3 ≤ B < 0.6)

# — US11945806B2, “Stabilization of amyloidogenic immunoglobulin light chains” (The Scripps Research Institute, priority 2019, dated 2024)
